Measured values taken from publication PMC7409137, “Characterisation of Ovarian Cancer Cell Line NIH-OVCAR3 and Implications of Genomic, Transcriptomic, Proteomic and Functional DNA Damage Response Biomarkers for Therapeutic Targeting” (Cancers, 2020).
Read-outs that look alike come from different tables or passages of the source.

Legend:
[1] = system: panel of cell lines, including the HCT116 p53 isogenic pair; set-up: method as in PMID 28062704; details: panel of cell lines incl. HCT116 p53 isogenic pair; cited from earlier work
p53 mutant CLL cells = system: p53 mutant CLL cells; set-up: method as in PMID 26312880; details: cited from earlier work
[2] = system: HRR competent (HRC) cell lines; test: Colony formation assay, HRR competent cell lines
Method: (§1) NIH-OVCAR3 cells were exposed to (A) VE-821 for 48 h, (B) carboplatin for 24 h or (C) rucaparib for 24 h. Media was replaced with drug free media for 21 days to allow colony formation. Data are the mean and standard deviation of at least three independent experiments. (D) Sensitivity of an additional 12 ovarian cancer cell lines to the three drugs was calculated in the same way and LC50 values were calculated. […] Data are pooled from 3 independent experiments per cell line.
(§2) Cells were plated into 6-well tissue culture dishes at low densities and allowed to adhere for 24 h before being treated for 24 h with carboplatin (0–50 µM) or rucaparib (0–30 µM), or 48 h with VE-821 (0–30 µM). DMSO concentration was kept constant at 0.5%, including no-drug control, for drugs dissolved in DMSO. Following treatment, the medium was removed and replaced with fresh drug-free medium to allow colony formation. The cells were fixed in methanol: acetic acid (3:1 v/v) and stained with 0.4% crystal violet. Colonies were counted and the % survival for each treatment was calculated from the relative plating efficiency of treated versus untreated controls.

[3] = system: 12 ovarian cancer cell lines; test: Colony formation assay, panel of 12 other ovarian cancer cell lines (mean)
Method: as §1, with “(D) Sensitivity of an additional 12 ovarian cancer cell lines to the three drugs was calculated in the same way and LC50 values were calculated.” left out
as §2

[4] = system: BRCA1 mutant HRR defective (HRD) cell lines (COV362 and UWB1.289); test: Colony formation assay, HRR defective cell lines
Method: as §1, §2

NIH-OVCAR3 cells [5] = test: cells
Method: as §1, §2

[6] = system: M059J and M059J-Fus1 cells; set-up: method as in PMID 22576130; details: cited from earlier work
p53 = type: cell-based, human
NIH-OVCAR3 cells [7] = test: Immunofluorescence based γH2AX-RAD51 foci assay; type: cell-based, human; details: 10 µM rucaparib, 48 h vs 0.5% DMSO
Method: Figure 4 Assessment of HRR and NHEJ in the NIH-OVCAR3 cells. (A) Cells were exposed to 0.5% DMSO (control) or 10 µM rucaparib for 48 h before being fixed and stained as per the protocol outlined in the methods. After imaging, the number of γH2AX and RAD51 foci per nucleus was calculated using ImageJ software, data points represent number of foci in an individual nucleus. The fold change in number of foci per nuclei between control and 10 µM rucaparib was then calculated. (B) Cells were co-transfected with pDRGFP and pCBASceI plasmids and analysed for the presence of GFP-positive cells 48 h post-transfection. % HRR activity was calculated by normalizing to the untransfected control. […] (C) Cells were co-transfected with pimEJ5GFP and pCBASceI plasmids and analysed for the presence of GFP-positive cells 48 h post-transfection. % NHEJ activity was calculated by normalizing to the untransfected control. […] [* p < 0.05; ** p < 0.005; **** p < 0.0001 (unpaired t-test)].
HRR was assessed by immunofluorescence. Cells were treated for 48 h with 10 μM rucaparib with 0.5% DMSO concentration for the untreated and treated cells. […] The number of γH2AX and RAD51 foci in each cell was quantified using ImageJ software and data was plotted using GraphPad Prism (GraphPad, San Diego, CA, USA).

[8] = system: HCT116 p53 isogenic cell line pair; set-up: method as in PMID 30127241; details: cited from earlier work
ATR [9] = molecular target: T1, ATR (Homo sapiens, UniProt Q13535); test: ATR inhibition by western blot of pCHK1Ser345 after 4NQO, NIH-OVCAR3; type: cell-based
T1 construct: NIH-OVCAR3 cells and 9 other ovarian cancer cell lines were exposed to 4NQO ± VE-821 as indicated for 1 hr before western blotting; endogenous in cells
Method: (§3) (A) NIH-OVCAR3 cells and 9 other ovarian cancer cell lines were exposed to 4NQO ± VE-821 as indicated for 1 hr before western blotting. Chemiluminescence was quantified using Syngene software and expression of pCHK1Ser345 was normalised to vinculin expression. Western blot image is from a single representative experiment with pooled data from 3 independent experiments per cell line used to calculate the mean VE-821 IC50 and percentage inhibition at 1 µM VE-821. (B) Bar chart represents log-transformed read counts obtained from RNA-Seq data for each gene normalized to ACTB mRNA expression for NIH-OVCAR3 cells (black bars) and the mean mRNA expression of each gene across 12 cell lines (white bars) where each black dot represents one cell line. (C) Bar chart represents protein expression normalised to Ponceau-s staining calculated using ImageJ software in NIH-OVCAR3 cells (black bars) and the mean protein expression of each gene across 12 cell lines (white bars) where each black dot represents one cell line. Data are from a single experimental repeat. [PRKDC: DNA-PKcs, XRCC5: Ku80, XRCC6: Ku70]. […] Western blot of baseline protein expression in panel of ovarian cancer cell lines can be found at Figure S5.

ATR [10] = molecular target: T1, ATR; test: ATR inhibition by western blot of pCHK1Ser345 after 4NQO, 9 other ovarian cancer cell lines; type: cell-based; details: mean of 9 ovarian cell lines
Method: as §3

[11] = ratio of LC50, colony formation
[12] = Homo sapiens, 24 h, read-out: Rucaparib LC50 ± SD
[13] = Homo sapiens, 48 h, read-out: VE-821 LC50 ± SD

T1 sequence (Q13535 whole entry): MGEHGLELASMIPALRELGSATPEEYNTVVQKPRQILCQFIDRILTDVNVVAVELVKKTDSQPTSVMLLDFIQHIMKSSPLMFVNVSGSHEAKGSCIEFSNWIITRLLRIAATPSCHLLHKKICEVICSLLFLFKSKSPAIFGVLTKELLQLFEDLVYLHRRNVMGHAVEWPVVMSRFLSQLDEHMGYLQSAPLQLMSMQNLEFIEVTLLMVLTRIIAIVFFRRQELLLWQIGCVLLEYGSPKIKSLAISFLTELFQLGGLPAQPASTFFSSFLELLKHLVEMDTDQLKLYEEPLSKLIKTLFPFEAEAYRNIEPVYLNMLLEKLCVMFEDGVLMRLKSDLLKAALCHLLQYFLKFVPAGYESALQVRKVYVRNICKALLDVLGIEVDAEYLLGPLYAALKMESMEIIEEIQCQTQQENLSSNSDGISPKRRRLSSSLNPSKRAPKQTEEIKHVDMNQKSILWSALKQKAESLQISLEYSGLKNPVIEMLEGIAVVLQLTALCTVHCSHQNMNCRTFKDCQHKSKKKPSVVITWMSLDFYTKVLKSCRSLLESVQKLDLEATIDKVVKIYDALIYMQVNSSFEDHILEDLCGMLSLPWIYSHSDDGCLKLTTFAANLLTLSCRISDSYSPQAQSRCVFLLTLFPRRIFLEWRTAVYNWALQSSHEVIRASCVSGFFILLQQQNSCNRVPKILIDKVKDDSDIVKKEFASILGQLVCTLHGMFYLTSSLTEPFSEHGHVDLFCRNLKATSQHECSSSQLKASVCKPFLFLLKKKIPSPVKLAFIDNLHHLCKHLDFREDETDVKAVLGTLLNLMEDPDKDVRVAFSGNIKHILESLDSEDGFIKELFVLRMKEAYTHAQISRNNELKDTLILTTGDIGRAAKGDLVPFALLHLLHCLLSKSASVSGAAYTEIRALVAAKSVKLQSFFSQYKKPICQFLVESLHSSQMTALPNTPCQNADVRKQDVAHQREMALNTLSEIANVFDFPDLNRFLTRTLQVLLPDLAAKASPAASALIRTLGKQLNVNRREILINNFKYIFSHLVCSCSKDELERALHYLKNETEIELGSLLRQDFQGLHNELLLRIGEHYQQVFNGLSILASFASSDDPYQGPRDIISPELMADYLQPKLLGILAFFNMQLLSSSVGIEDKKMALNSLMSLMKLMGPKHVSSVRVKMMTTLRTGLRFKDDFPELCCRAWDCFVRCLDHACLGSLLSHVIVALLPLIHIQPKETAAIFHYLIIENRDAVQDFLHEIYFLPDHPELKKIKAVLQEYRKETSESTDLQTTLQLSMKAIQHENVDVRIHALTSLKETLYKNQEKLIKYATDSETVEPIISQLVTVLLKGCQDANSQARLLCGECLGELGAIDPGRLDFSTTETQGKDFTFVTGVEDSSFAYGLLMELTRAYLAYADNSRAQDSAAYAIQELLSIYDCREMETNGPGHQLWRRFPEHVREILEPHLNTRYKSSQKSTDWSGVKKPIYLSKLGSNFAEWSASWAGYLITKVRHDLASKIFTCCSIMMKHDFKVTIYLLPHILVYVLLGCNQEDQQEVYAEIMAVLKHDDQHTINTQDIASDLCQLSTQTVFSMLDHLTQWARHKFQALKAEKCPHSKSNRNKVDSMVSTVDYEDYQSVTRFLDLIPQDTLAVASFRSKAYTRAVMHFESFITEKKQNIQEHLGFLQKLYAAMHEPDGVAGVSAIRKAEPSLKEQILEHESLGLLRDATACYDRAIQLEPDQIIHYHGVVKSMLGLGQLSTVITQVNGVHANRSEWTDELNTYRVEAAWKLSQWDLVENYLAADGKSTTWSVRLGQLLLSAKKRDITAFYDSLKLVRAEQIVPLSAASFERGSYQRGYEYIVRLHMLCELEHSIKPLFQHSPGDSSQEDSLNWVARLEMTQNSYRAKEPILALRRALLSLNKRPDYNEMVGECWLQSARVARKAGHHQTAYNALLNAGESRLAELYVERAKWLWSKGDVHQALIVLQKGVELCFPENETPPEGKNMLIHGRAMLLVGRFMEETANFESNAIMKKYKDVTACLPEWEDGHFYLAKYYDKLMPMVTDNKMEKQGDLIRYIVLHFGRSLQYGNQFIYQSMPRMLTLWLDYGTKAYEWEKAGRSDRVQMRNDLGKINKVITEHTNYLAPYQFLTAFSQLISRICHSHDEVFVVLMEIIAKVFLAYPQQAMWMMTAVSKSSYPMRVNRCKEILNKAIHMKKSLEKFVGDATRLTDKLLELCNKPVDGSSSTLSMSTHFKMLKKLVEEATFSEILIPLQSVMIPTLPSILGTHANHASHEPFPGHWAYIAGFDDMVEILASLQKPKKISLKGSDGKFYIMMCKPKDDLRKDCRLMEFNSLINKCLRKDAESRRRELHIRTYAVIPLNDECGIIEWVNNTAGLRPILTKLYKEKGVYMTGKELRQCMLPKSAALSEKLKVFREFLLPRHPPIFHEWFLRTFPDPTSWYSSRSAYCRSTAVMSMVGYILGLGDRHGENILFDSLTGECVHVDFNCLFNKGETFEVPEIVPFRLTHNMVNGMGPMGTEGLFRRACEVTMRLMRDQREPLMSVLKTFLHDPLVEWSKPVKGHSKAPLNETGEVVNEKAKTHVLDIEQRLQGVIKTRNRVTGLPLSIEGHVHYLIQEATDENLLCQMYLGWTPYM
T1 sequence (Q8WXE1 whole entry partner): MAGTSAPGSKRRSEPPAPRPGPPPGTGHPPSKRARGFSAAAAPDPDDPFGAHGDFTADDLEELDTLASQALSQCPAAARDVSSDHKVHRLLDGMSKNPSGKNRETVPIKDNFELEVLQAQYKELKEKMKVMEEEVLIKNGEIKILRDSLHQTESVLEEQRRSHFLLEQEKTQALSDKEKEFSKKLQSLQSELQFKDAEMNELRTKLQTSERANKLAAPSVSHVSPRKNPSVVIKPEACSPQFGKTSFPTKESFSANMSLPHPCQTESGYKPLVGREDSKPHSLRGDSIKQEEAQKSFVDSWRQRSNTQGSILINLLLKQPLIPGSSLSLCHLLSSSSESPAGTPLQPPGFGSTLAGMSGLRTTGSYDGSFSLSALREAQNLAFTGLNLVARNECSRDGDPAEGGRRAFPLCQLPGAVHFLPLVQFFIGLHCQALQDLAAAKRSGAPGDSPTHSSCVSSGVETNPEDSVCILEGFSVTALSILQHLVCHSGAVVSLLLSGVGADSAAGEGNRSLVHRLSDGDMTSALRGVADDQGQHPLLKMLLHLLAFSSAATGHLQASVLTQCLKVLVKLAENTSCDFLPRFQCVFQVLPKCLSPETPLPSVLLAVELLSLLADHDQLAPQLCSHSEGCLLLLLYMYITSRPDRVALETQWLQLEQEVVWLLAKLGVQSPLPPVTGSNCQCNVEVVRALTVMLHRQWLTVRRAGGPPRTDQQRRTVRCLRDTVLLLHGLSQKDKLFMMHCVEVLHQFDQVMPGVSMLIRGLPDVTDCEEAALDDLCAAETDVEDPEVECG

SMILES: C[C@@H]1COCCN1c1cc(C2([S@](C)(=N)=O)CC2)nc(-c2cc[nH]c3nccc2-3)n1 [AZD6738]
- Sensitivity in relation to p53 status [1]: independent of p53 status
- Cytotoxicity in relation to p53 status (p53 mutant CLL cells): selectively cytotoxic towards p53 mutant CLL cells

SMILES: N.N.O=C([O-])C1(C(=O)[O-])CCC1.[Pt+2] [Carboplatin]
- CC50 ([2]; read-out: Carboplatin LC50 ± SD, HRC cell lines, 24 h exposure, colony formation): 7.02 ± 7.09 µM
- CC50 ([3]; read-out: Carboplatin LC50 ± SD, mean of 12 ovarian cell lines, 24 h exposure, colony formation): 6120 ± 6180 nM
- CC50 ([4]; read-out: Carboplatin LC50 ± SD, HRD cell lines, 24 h exposure, colony formation): 1520 ± 940 nM
- Fold more sensitive, NIH-OVCAR3 compared to the 12 ovarian cancer cell lines (NIH-OVCAR3 cells [5]; [11]): 5 fold
- CC50 (NIH-OVCAR3 cells [5]; read-out: Carboplatin LC50 ± SD, NIH-OVCAR3, 24 h exposure, then drug free media 21 days, colony formation): 1290 ± 340 nM

SMILES: COc1cccc2c1C(=O)c1c(O)c3c(c(O)c1C2=O)C[C@@](O)(C(=O)CO)C[C@@H]3O[C@H]1C[C@H](N)[C@H](O)[C@H](C)O1 [Doxorubicin, doxorubicin]
- CC50 ([3]; Homo sapiens, 24 h, read-out: Doxorubicin LC50 ± SD): 44.5 ± 15.5 nM
- mean percentage cell survival at 100 nM ([3]; mean of the 12 ovarian cancer cell lines, 100 nM doxorubicin): ~ 12%
- percentage cell survival at 100 nM ([6]; M059J-Fus1 cells, 100 nM doxorubicin): ~ 30%
- Fold more sensitive, NHEJ-deficient M059J vs NHEJ-proficient M059J-Fus1 cells [6]: 20 fold
- Fold higher percentage cell survival, NIH-OVCAR3 vs mean of the 12 ovarian cancer cell lines (NIH-OVCAR3 cells [5]; 100 nM doxorubicin): 1.4 fold
- CC50 (NIH-OVCAR3 cells [5]; Homo sapiens, OVCAR-3, read-out: Doxorubicin LC50 ± SD): 55 ± 1.97 nM
- percentage cell survival at 100 nM (NIH-OVCAR3 cells [5]; NIH-OVCAR3, 100 nM doxorubicin): ~ 17%

SMILES: Nc1ccn([C@@H]2O[C@H](CO)[C@@H](O)C2(F)F)c(=O)n1 [Gemcitabine, gemcitabine]
- Gemcitabine LC50 ± SD [3]: 28.7 nM
- CC50 (NIH-OVCAR3 cells [5]; Homo sapiens, OVCAR-3, read-out: Gemcitabine LC50 ± SD): 41.5 ± 1.2 nM

SMILES: COc1ccc(C2=N[C@@H](c3ccc(Cl)cc3)[C@@H](c3ccc(Cl)cc3)N2C(=O)N2CCNC(=O)C2)c(OC(C)C)c1 [Nutlin-3]
- Induction of MDM2 and p21 (indicators of p53 activation) (p53): no induction of either MDM2 or p21

SMILES: CC(=O)O[C@H]1C(=O)[C@@]2(C)[C@H]([C@H](OC(=O)c3ccccc3)[C@]3(O)C[C@H](OC(=O)[C@H](O)[C@@H](NC(=O)c4ccccc4)c4ccccc4)C(C)=C1C3(C)C)[C@]1(OC(C)=O)CO[C@@H]1C[C@@H]2O [Paclitaxel, paclitaxel]
- CC50 ([3]; Homo sapiens, 24 h, read-out: Paclitaxel LC50 ± SD): 3.37 ± 2.41 nM
- CC50 (NIH-OVCAR3 cells [5]; Homo sapiens, OVCAR-3, read-out: Paclitaxel LC50 ± SD): 2.71 ± 0.08 nM

SMILES: CNCc1ccc(-c2[nH]c3cc(F)cc4c3c2CCNC4=O)cc1 [Rucaparib, rucaparib]
- CC50 [2, 12]: 10.5 ± 9.61 µM
- CC50 [3, 12]: 8800 ± 9580 nM
- RAD51 foci formation (NIH-OVCAR3 cells [7]): increase in RAD51 foci formation
- γH2AX foci formation (NIH-OVCAR3 cells [7]): induction in γH2AX foci
- CC50 [4, 12]: 280 ± 70 nM
- CC50 (NIH-OVCAR3 cells [5]; Homo sapiens, OVCAR-3, read-out: Rucaparib LC50 ± SD): 410 ± 60 nM
- Fold more sensitive, NIH-OVCAR3 compared to HRR competent (HRC) cell lines (NIH-OVCAR3 cells [5]; [11]): 26 fold
- Fold more sensitive, NIH-OVCAR3 compared to the 12 ovarian cancer cell lines (NIH-OVCAR3 cells [5]; [11]): 21 fold

SMILES: CC[C@@]1(O)C(=O)OCc2c1cc1n(c2=O)Cc2cc3c(CN(C)C)c(O)ccc3nc2-1 [Topotecan, topotecan]
- CC50 ([3]; Homo sapiens, 24 h, read-out: Topotecan LC50 ± SD): 15.6 ± 9.32 nM
- CC50 (NIH-OVCAR3 cells [5]; Homo sapiens, OVCAR-3, read-out: Topotecan LC50 ± SD): 7.2 ± 0.36 nM

SMILES: CS(=O)(=O)c1ccc(-c2cnc(N)c(C(=O)Nc3ccccc3)n2)cc1 [VE-821]
- Difference in sensitivity to single agent between p53 isogenic cells [8]: no difference in sensitivity
- CC50 [2, 13]: 1.68 ± 1.19 µM
- CC50 [3, 13]: 1580 ± 1120 nM
- CC50 [4, 13]: 1010 ± 500 nM
- IC50 (ATR [9]; 4NQO ± VE-821 for 1 hr, western blot, normalised to vinculin, read-out: VE-821 IC50 ± SD (ATR inhibition, pCHK1Ser345)): 310 ± 270 nM
- inhibition at 1 µM (ATR [9]; OVCAR-3, 1 μM VE-821, 4NQO, 1 hr, pCHK1Ser345, read-out: ATR Inhibition at 1 μM VE-821 ± SD): 81 ± 5.29%
- inhibition at 1 µM (ATR [10]; 1 μM VE-821, 4NQO, 1 hr, pCHK1Ser345, read-out: ATR Inhibition at 1 μM VE-821 ± SD): 78.1 ± 13.4%
- IC50 (ATR [10]; 4NQO ± VE-821 for 1 hr, western blot, read-out: VE-821 IC50 ± SD (ATR inhibition, pCHK1Ser345)): 380 ± 200 nM
- CC50 (NIH-OVCAR3 cells [5]; Homo sapiens, OVCAR-3, read-out: VE-821 LC50 ± SD): 17900 ± 4560 nM
- Fold more resistant, NIH-OVCAR3 compared to panel of 12 ovarian cancer cell lines (NIH-OVCAR3 cells [5]; [11]): 11 fold
